BindingDB's records for doi:10.1002/cbic.200500168 (University of Leipzig, 2005)

These compounds were tested against T1, Kinesin-like protein KIF11 (Homo sapiens, UniProt P52732) (assay: Malachite Green Assay). Details: pH 6.8; 25 °C.
T1 sequence (P52732 whole entry): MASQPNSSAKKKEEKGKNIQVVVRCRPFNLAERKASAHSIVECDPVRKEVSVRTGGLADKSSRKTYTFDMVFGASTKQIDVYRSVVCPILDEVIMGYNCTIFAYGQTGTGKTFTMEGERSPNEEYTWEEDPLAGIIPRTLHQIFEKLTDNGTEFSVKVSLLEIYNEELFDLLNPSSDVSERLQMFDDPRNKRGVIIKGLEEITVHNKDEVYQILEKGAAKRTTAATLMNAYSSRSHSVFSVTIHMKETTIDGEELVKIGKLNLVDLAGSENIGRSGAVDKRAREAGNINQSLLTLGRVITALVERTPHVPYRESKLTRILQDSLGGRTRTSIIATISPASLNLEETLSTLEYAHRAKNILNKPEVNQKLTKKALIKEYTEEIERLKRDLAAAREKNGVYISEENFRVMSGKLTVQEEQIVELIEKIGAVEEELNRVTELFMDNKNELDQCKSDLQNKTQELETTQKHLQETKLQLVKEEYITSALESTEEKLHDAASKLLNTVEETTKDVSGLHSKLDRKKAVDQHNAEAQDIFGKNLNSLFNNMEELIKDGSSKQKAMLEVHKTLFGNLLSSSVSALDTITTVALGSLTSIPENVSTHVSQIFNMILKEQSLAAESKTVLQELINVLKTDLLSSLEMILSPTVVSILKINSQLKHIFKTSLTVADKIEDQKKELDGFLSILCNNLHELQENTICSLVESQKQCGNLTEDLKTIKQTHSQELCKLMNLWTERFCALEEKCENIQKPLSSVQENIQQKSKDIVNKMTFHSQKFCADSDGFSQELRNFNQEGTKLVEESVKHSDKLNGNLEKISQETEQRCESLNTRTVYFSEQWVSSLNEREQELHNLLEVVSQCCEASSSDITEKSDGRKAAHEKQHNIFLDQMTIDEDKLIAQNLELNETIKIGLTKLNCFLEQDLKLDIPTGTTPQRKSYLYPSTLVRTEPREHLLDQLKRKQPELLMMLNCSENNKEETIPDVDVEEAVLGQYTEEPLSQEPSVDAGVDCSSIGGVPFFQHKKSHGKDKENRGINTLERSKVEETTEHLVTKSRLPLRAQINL
Procedure: The ATPase activity of the Eg5 motor domain was measured by using the malachite green assay.

SMILES | IC50
CCOC(=O)C1C(C)=NC(=S)N[C@H]1c1cccc(O)c1 (stereo not given in full) [Monastrol] | 20.7 µM
Oc1cccc(C2NC(=S)Nc3ccc(Br)cc32)c1 (stereo not given) [VS-17] | 5.75 µM
Oc1cccc(C2NC(=S)Nc3ccc(Cl)cc32)c1 (stereo not given) [VS-42] | 5.77 µM
Oc1cccc(C2NC(=S)Nc3ccccc32)c1 (stereo not given) [VS-12] | 7.6 µM
Cc1ccc2c(c1)NC(=S)NC2c1cccc(O)c1 (stereo not given) [VS-91] | 7.59 µM
Oc1cccc(C2NC(=S)Nc3ccc(F)cc32)c1 (stereo not given) [VS-77] | 8.04 µM

Compounds with a lower IC50, results first:

IC50 | SMILES
2.74 µM | Oc1cccc(C2NC(=S)Nc3cc(F)c(F)cc32)c1 (stereo not given) [VS-87]
2.73 µM | Cc1ccc2c(c1)C(c1cccc(O)c1)NC(=S)N2 (stereo not given) [VS-94]
1.81 µM | Oc1cccc(C2NC(=S)Nc3cc(F)ccc32)c1 (stereo not given) [VS-54]
1.17 µM | Oc1cccc(C2NC(=S)Nc3cccc(F)c32)c1 (stereo not given) [VS-83]
